The subject of data set [1] is Human immunodeficiency virus 1. As to the kind of experiment: Antiviral activity against HIV-1 NL4-3 infected in human TZM-bl cells infected with supernatants from virus-infected human H9 cells treated with compound for 72 hrs assessed as reduction in luciferase expression measured after 48 hrs by luciferase reporter gene assay based BiCycle assay. The conditions noted are these: Human immunodeficiency virus 1, NL4-3. It counts as functional, organism-based. On the technique in general: Reporter assays use an easily measured gene product as a stand-in for the process of interest.

Data set [2] deals with ATP-dependent RNA helicase DDX3X (Homo sapiens, UniProt O00571). As to the kind of experiment: Inhibition of human DDX3X using dsRNA as substrate measured every 30 sec for 40 mins by FRET assay.
The nature of data set [3]: Metabolic stability in human liver microsomes assessed as parent compound remaining measured after 60 mins by LC-UV-MS analysis. It counts as ADME, Microsome. The conditions noted are these: read-out: Stabilty. In general terms: Liver microsomes are a subcellular fraction often used to study metabolism.
Data set [4] is described as follows: Apparent permeability of compound incubated for 5 hrs by PAMPA assay. It counts as ADME. (In general: In PAMPA a lipid-coated filter parts donor from acceptor wells.)

Each structure is given as a SMILES string.

From ChEMBL document CHEMBL4680261, “DDX3X inhibitors, an effective way to overcome HIV-1 resistance targeting host proteins” (Eur J Med Chem, 2020) come the findings set out here.

In general, IC50 refers to the point on the concentration scale where inhibition reaches its midpoint. As a reminder, the Papp is a coefficient for how fast a substance crosses the barrier.

ATP-dependent RNA helicase DDX3X, sequence (O00571 whole entry): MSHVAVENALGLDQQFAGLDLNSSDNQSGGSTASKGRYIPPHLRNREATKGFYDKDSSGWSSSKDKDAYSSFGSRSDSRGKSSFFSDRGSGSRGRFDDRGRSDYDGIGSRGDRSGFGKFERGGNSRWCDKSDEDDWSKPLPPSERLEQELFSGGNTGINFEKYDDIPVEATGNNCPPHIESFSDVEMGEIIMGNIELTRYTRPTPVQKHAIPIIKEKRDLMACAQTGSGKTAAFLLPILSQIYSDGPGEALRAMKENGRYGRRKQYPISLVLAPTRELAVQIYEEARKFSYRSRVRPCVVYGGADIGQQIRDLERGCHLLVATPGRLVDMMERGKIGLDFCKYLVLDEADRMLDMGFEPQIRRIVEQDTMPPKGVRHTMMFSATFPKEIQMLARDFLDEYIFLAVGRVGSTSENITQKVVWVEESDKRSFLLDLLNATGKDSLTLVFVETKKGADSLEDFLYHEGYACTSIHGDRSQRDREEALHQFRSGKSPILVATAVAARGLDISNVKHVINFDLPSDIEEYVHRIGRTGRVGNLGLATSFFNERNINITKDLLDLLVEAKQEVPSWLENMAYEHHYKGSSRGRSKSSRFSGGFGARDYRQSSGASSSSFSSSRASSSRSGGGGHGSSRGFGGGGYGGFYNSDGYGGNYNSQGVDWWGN

For `CCCCc1cn(-c2ccc(NC(=O)Nc3ccccc3C)cc2)nn1`, in data set [1], the 50% inhibitory concentration (IC50) was 1110 nM. Turning to `CCCCc1cn(-c2ccc(NC(=O)Nc3cc(O[C@H]4O[C@@H](CO)[C@H](O)[C@@H]4O)ccc3C)cc2)nn1`, the half-inhibitory concentration (IC50) result in data set [2] was “Not Active”; in data set [1] it was > 50000 nM. Regarding `CCOP(=O)(OCC)OCCc1cn(-c2ccc(NC(=O)Nc3ccccc3C)cc2)nn1`, the remaining at 1 h in data set [3] is 53.7%. The Papp at 5 h in data set [4] stood at 0.72 ×10⁻⁶ cm/s. Besides, in data set [1], the IC50 is > 50000 nM. With `CCCCc1cn(-c2ccc(NC(=O)Nc3cc(O)ccc3C)cc2)nn1`, in data set [2] (read-out: IC50), the IC50 was found to be 490 nM.

For the compound `CCCCc1cn(-c2ccc(NC(=O)Nc3cc(OCOC)ccc3C)cc2)nn1`, the IC50 in data set [2] (read-out: IC50) is 820 nM. Consider `CCCCc1cn(-c2ccc(NC(=O)Nc3cc(OC4CCCC4)ccc3C)cc2)nn1`, for which the IC50 was 140 nM in data set [2] (read-out: IC50) and 200 nM in data set [1]. In addition, the remaining at 1 h in data set [3] amounted to 92.5%. The Papp at 5 h in data set [4] is 1.96 ×10⁻⁶ cm/s.

`Cc1ccccc1NC(=O)Nc1ccc(-n2cc(CCN3CCOCC3)nn2)cc1`: in data set [2] (read-out: IC50), the half-inhibitory concentration (IC50) worked out at 59700 nM.

Take `CCCCc1cn(-c2ccc(NC(=O)Nc3cccc4cnccc34)cc2)nn1`: the IC50 came to 150 nM in data set [2] (read-out: IC50) and 2200 nM in data set [1]. Further, in data set [3], the remaining at 1 h stood at 95.2%. Besides, in data set [4], the Papp at 5 h was < 0.1 ×10⁻⁶ cm/s. Turning to `Cc1ccccc1NC(=O)Nc1ccc(-n2cc(CN3CCOCC3)nn2)cc1`, in data set [2], the IC50 result is recorded as “Not Active”. As for `Cc1ccccc1NC(=O)Nc1ccc(-n2cc(CCCN3CCOCC3)nn2)cc1`, in data set [2] (read-out: IC50), the half-maximal inhibitory concentration (IC50) came out at 53800 nM.
